Assay results published in US20230250096A1, “SUBSTITUTED PHENYL-1H-PYRROLO[2,3-c] PYRIDINE DERIVATIVES” (Janssen Pharmaceutica NV, priority 2021, published 2023).

Tests used:
[1] = system: OCI-AML3 cells; test: Proliferation assay (spheroid confluence, 8 days), OCI-AML3; format: cell-based, human; conditions: Homo sapiens, OCI-AML-3, OCI-AML3; read-out: spheroid assay_OCI-AML3 IC50
Experimental: (§1) The anti-proliferative effect of menin/MLL protein/protein interaction inhibitor test compounds was assessed in human leukemia cell lines. The cell line MOLM14 harbors a MLL translocation and expresses the MLL fusion protein MLL-AF9, respectively, as well as the wildtype protein from the second allele. OCI-AML3 cells that carry the NPM1c gene mutation were also tested. […] KO-52 was used as a control cell line containing two MLL (KMT2A) wildtype alleles in order to exclude compounds that display general cytotoxic effects.
(§2) MOLM14 cells were cultured in RPMI-1640 (Sigma Aldrich) supplemented with 10% heat-inactivated fetal bovine serum (HyClone), 2 mM L-glutamine (Sigma Aldrich) and 50 μg/ml gentamycin (Gibco). KO-52 and OCI-AML3 cell lines were propagated in alpha-MEM (Sigma Aldrich) supplemented with 20% heat-inactivated fetal bovine serum (HyClone), 2 mM L-glutamine (Sigma Aldrich) and 50 μg/ml gentamycin (Gibco).
(§3) In order to assess the anti-proliferative effects, 200 MOLM14 cells, 200 OCI-AML3 cells or 300 KO-52 cells were seeded in 200 μl media per well in 96-well round bottom, ultra-low attachment plates (Costar, catalogue number 7007). Cell seeding numbers were chosen based on growth curves to ensure linear growth throughout the experiment. Test compounds were added at different concentrations and the DMSO content was normalized to 0.3%. Cells were incubated for 8 days at 37° C. and 5% CO2. Spheroid like growth was measured in real-time by live-cell imaging (IncuCyteZOOM, Essenbio, 4×objective) acquiring images at day 8. Confluence (%) as a measure of spheroid size was determined using an integrated analysis tool.
(§4) In order to determine the effect of the test compounds over time, the confluence in each well as a measure of spheroid size, was calculated. Confluence of the highest dose of a reference compound was used as baseline for the LC (Low control) and the confluence of DMSO treated cells was used as 0% cytotoxicity (High Control, HC).
(§5) Absolute IC50 values were calculated as percent change in confluence as follows:
(§6) LC=Low Control: cells treated with e.g. 1 μM of the cytotoxic agent staurosporin, or e.g. cells treated with a high concentration of an alternative reference compound
(§7) HC=High Control: Mean confluence (%) (DMSO treated cells)
(§8) % Effect=100−(100*(Sample−LC)/(HC−LC))
(§9) GraphPad Prism (version 7.00) was used to calculate the IC50. Dose-response equation was used for the plot of % Effect vs Log10 compound concentration with a variable slope and fixing the maximum to 100% and the minimum to 0%.

[2] = biological target: T1, menin/MLL (terbium chelate-labeled menin, FITC-MBM1 peptide) (Homo sapiens, UniProt O00255, T541A); test: Menin/MLL homogenous time-resolved fluorescence (HTRF) assay; format: binding; conditions: 30 min incubation
T1 construct: Menin (a.a 1-610-6xhis tag, 2.3 mg/mL in 20 mM Hepes)
T1 sequence (O00255 with tags, fused parts or gaps T541A): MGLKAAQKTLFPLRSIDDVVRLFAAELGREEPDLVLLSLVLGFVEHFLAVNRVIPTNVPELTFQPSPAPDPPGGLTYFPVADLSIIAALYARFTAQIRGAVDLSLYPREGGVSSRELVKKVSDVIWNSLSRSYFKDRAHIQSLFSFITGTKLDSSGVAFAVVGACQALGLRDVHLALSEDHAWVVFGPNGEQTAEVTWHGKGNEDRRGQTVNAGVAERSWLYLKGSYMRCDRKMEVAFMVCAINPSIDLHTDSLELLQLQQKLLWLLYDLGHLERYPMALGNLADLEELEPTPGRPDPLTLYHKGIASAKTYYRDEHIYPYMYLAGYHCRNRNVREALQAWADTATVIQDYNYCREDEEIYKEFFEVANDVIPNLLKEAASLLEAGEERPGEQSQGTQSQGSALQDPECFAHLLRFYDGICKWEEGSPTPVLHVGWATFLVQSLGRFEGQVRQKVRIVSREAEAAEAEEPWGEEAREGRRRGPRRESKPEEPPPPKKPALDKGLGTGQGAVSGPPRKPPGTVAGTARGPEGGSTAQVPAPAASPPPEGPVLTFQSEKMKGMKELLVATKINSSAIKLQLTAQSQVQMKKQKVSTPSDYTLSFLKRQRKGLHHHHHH
Procedure, shortened: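 Competition binding read by time-resolved FRET (FITC 520 nm over terbium 490 nm) after compound meets labeled menin 1-610-His […] for 30 min, then FITC-MBM1 (75 nM) for 15 min, ambient temperature, 0.5% DMSO. Eleven-point four-fold dilutions, usually starting at 10 μM, fitted to four-parameter curves for IC50.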

[3] = system: KO-52 cells; test: Proliferation assay (spheroid confluence, 8 days), KO-52 control cell line; format: cell-based, human; conditions: Homo sapiens, read-out: spheroid assay_KO-52 IC50
Experimental: as §1, §2, §3, §4, §5, §6, §7, §8, §9

[4] = Dynamic vapor sorption (DVS) moisture sorption analysis; format: physicochemical
Experimental: Dynamic Vapor Sorption (DVS)
The moisture sorption analysis (DVS) was performed using a ProUmid GmbH & Co. KG Vsorp Enhanced dynamic vapor sorption apparatus. The moisture profile was evaluated by monitoring vapor adsorption/desorption over the range of 0 to 90% relative humidity at 25° C. The sample weight equilibrium criteria were set at <0.01% change in 45 min with minimum and maximum time of acclimation at 50 min and 120 min, respectively. The moisture profile consisted of 2 cycles of vapor adsorption/desorption.
In the humidity range of 20-90% RH, the crystalline form adsorbs and desorbs moisture slowly and reversibly up to 2.5% by mass on average. Based on DVS, the crystalline HCl salt Form, at equilibrium, can contain around 3 equivalents of water (8.5-9.5% total moisture mass) at common ambient RH of 40% to 75%.

[5] = common ambient RH of 40% to 75%

Row | IC50 [1] [nM] | Structure (SMILES) | IC50 [2] [nM] | IC50 [3] [nM] | hygroscopicity of the crystalline form (DVS change in mass plot) ([4]; 0 to 90% relative humidity, 25° C., 2 cycles of adsorption/desorption) | solid-state form change after the DVS test (XRPD compared with the starting material) ([4]; XRPD of the fraction obtained after DVS) | dehydration behaviour at low relative humidity ([4]; below 10% RH, to complete dehydrated state at 0% RH) | total moisture mass at equilibrium [4, 5] | water content at equilibrium [4, 5] | moisture adsorbed and desorbed (slowly and reversibly), on average ([4]; humidity range of 20-90% RH, 25° C.)
1 | 7 | COCC(=O)N1CCC(C(C)N2CCC(Cc3cn(-c4ccc(F)cc4C(=O)N(C)C(C)C)c4cncc(C)c34)C2)CC1 (single isomer, unassigned) [Compound 117a] | 0.088 | 1600 |  |  |  |  |  | 
2 |  | CC(=O)N1CCC(CN2CC[C@@H](Cc3cn(-c4ccc(F)cc4C(=O)N(C)C(C)C)c4cncc(C)c34)C2)CC1.Cl [Compound 51a] | 0.024 |  | hygroscopic | No indication of a solid-state form change was observed | dehydrates rapidly | 8.5-9.5% | around 3 equivalents of water | up to 2.5 % by mass
